Data from patent US20050014676A1, “Methods for delaying or inducing labor” (Boston Biomedical Research Institute, priority 2003, published 2005).
“Also recorded” adds a separate entry of the source.

Tests used:
[1] = test system: 20-kDa myosin light chain (LC20); assay: Measurement of myosin light chain 20 phosphorylation (LC20-P) in permeabilized myometrial strips; parameters: species or system rat; conditions: 51 mM KCl stimulated for 4 min myometrial strips
Experimental: Measurements of myosin light chain 20 phosphorylation (LC20-P). Tissue preparation was as described above. After equilibration and stretching, the myometrial strips were permeabilized with 20 μg/ml alpha-toxin (List Biological Lab, Campbell, Calif.) at 34° C. for 30 min. The intracellular Ca2+ concentration was clamped at pCa7.0 for 12 min to prevent an artifactual triggering of contractions in response to the freezing solution. The measurement of LC20-P was performed by glycerol urea gels and western blots as previously published (Je et al., J. Physiol. 537, 567-577 (2001)). Moles phosphate per mole myosin light chain was calculated by dividing the density of the phosphorylated band by the sum of densities of phosphorylated plus the unphosphorylated bands.

pregnant rats and pups = assay: Fetal weight and toxicity to mothers and pups; format: in vivo, rat; conditions: for Fetal number/rat / Fetal weight: gestation day 20; for Fetal weight: (n) in brackets
Source text: Animals and treatment groups. All procedures were approved by our institutional animal care and use committee (IACUC). Sprague-Dawley nonpregnant and time-mated, primigravid pregnant rats (day 1=sperm positive, Taconic, Germantown, N.Y.) were used for the experiments. They were housed in a constant-temperature room with a 12-hr light and 12-hr dark cycle. Food and water were available ad libitum. The rats were divided into five groups: nonpregnant (NP), sham, RU486 treated (RU), U0126+RU486 treated (U0+RU) and spontaneous labor (SL). The sequential scheme of the experiment is illustrated in FIG. 1.
Induction of preterm labor: In the RU group, rats (n=6) were treated with RU486 subcutaneously (SC) at dose of 2 mg/kg (concentration of 3 mg/ml in sunflower seed oil) at 10 am on day 19 of pregnancy. Then the rats were closely observed for signs of labor on day 20 of pregnancy.
U0126 treatment: In the U0+RU group, 18-day pregnant rats (n=6) were treated with U0126 at dose of 100 mg/kg, SC, q8h (7 am, 3 pm and 11 pm). U0126 was dissolved at a concentration of 200 mg/ml in DMSO. On day 19 of pregnancy, the rats were administrated RU486 at 10 am for preterm labor induction. The U0126 treatment continued till the onset of labor.
Tissue preparation and force recording.

[2] = test system: Sprague-Dawley pregnant rats; assay: RU486-induced preterm labor in rats, onset of labor; conditions: for average delivery time after RU486 administration: RU486 2 mg/kg SC at 10 am day 19 of pregnancy, U0126 100 mg/kg SC q8h from day 18 until labor, mean±SEM
myometrial strips = assay: In vitro myometrial contractility (isometric force, AUC) of strips from treated rats
ERK2 = assay: Western blot of myometrial ERK2 phosphorylation (p-ERK2/ERK2); parameters: species or system rat; conditions: myometrium at onset of labor
Experimental: (§1) Western blot analysis. The muscle strips were quick-frozen in a dry ice acetone/DTT/TCA slurry at the end of force recording experiment. Samples were homogenized in a buffer containing 20 mM MOPS, 4% SDS, 1% Triton, 10% glycerol, 10 mM DTT, 20 mM β-glycerophosphate, 5.5 μM leupeptin, 5.5 μM pepstatin A, 20 KIU aprotinin, 2 mM Na3VO4, 1 mM NaF, 20 μM 4-(2-aminorthyl) benzenesulphonyl fluoride (AEBSF) and 100 μM ZnCl2. Protein-matched samples were SDS-PAGE electrophoresed, transferred to Immobilon-P membrane (Millipore, Bedford, Mass.), and subjected to immunostaining using the appropriate antibody. Blots were visualized with a SuperSignal West Pico Peroxide Solution (Pierce, Rockford, Ill.). The images were detected with a chemiluminescence screen and quantified with a BioRad Molecular Imager and Multi-Analyst software.

[3] = test system: high molecular weight caldesmon (h-CaD); assay: Western blot of myometrial h-CaD phosphorylation (Ser789); parameters: species or system rat; conditions: myometrium at onset of labor
Experimental: as §1

| SMILES | LC20-P level, positive control [1] | Fetal number/rat (pregnant rats and pups) | Fetal weight (pregnant rats and pups) | average delivery time after RU486 administration ([2]; n=6) | average gestational length ([2]; RU486-induced preterm labor, Mean±SD, n=6) | area under force curve (AUC) normalized to tissue dry weight (myometrial strips; strips from treated rats at labor, force integrated over 15 min) | signs of toxicity to mother or offspring (pregnant rats and pups; U0126 at doses sufficient to delay preterm labor) | effect on fetal weight (pregnant rats and pups; U0126 treatment) | daily weight gain or general behavior of pregnant rats, U0+RU vs RU group (pregnant rats and pups; data not shown) | delay of RU486-induced preterm labor ([2]; U0126 pretreatment, rats) | ERK2 phosphorylation (p-ERK2/ERK2), words (ERK2) | myometrial AUC once labor commenced, vs RU486 or spontaneous labor (myometrial strips; U0+RU group) | h-CaD phosphorylation normalized to CaD protein, words [3] |
| --- | --- | --- | --- | --- | --- | --- | --- | --- | --- | --- | --- | --- | --- |
| [Cl-].[K+] [KCI] | 39.68±3.33 |  |  |  |  |  |  |  |  |  |  |  |  |
| CC#C[C@]1(O)CC[C@H]2[C@@H]3CCC4=CC(=O)CCC4=C3[C@@H](c3ccc(N(C)C)cc3)C[C@@]21C [RU486, 11 β-[4-Dimethylamino] phenyl-17β-hydroxy-17-[1-propynyl] estra-4,9-dien-3-one] |  | 13.4 | 2.46 ± 0.068 (16) grams | 22.25 ± 0.24 h | 20.35 ± 0.02 days | 381.49 ± 44.92 g·s/mg |  |  |  |  |  |  |  |
| N#CC(=C(N)Sc1ccccc1N)C(C#N)=C(N)Sc1ccccc1N [U0126, 1,4-diamino-2,3-dicyano-1,4-bis (2-aminophenylthio) butadiene] |  | 12.3 | 2.46 ± 0.036 (31) grams | 25.18 ± 0.64 h |  |  | no apparent signs of toxicity; also recorded: no obvious signs of toxicity | did not affect fetal weight | no difference | delays RU486-induced preterm labor in a statistically significant manner | indistinguishable | indistinguishable | indistinguishable |
